As usually defined, the IC50 is the concentration that gives 50% inhibition.

For this assay, the target named is T1, CCK Receptor (Pancreas) (Rattus norvegicus, UniProt P30551).
T1 construct: The whole pancreas was dissected free of fat tissue and was homogenized; from tissue; host or cells: rat pancreas membrane homogenate
T1 sequence (P30551 1-444): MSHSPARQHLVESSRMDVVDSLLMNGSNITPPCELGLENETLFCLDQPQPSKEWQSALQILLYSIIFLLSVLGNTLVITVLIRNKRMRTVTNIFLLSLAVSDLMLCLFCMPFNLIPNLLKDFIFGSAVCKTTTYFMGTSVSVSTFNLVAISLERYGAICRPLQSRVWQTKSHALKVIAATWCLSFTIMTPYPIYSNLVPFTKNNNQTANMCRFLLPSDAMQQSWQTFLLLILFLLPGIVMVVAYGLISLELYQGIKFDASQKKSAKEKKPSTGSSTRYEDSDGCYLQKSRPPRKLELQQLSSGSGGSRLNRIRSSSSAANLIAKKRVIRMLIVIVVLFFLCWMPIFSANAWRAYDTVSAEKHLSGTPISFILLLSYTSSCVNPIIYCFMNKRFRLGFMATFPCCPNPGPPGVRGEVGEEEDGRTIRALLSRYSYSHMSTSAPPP
Put plainly: CCK Receptor Binding (Pancreas), inhibition of specific 125I-CCK-8 binding. Also noted: species or system Sprague-Dawley rats. The conditions noted are these: rat whole pancreas membranes; 50 pM 125I-CCK-8; 25°C for 2 hours. As for the experimental part: CCK-8 sulphated was radiolabelled with ¹²⁵I-Bolton Hunter reagent (2000 Ci/mmole). Receptor binding was performed according to Chang and Lotti (Proc. Natl. Acad. Sci. 83, 4923-4926, 1986) with minor modifications.
Male Sprague-Dawley rats (150-200g) were sacrificed by decapitation. The whole pancreas was dissected free of fat tissue and was homogenized in 25 volumes of ice-cold 10 mM N-2-hydroxyethyl-piperazine-N′-2-ethane sulphonic acid (HEPES) buffer with 0.1% soya bean trypsin inhibitor (pH 7.4 at 25°C) with a Kinematica Polytron. The homogenates were centrifuged at 47,800 g for 10 min. Pellets were resuspended in 10 volumes of binding assay buffer (20mM (HEPES)), 1mM ethylene glycol-bis-(β-aminoethylether-N,N′-tetraacetic acid) (EGTA), 5mM MgCl₂, 150 mM NaCl, bacitracin 0.25 mg/ml, soya bean trypsin inhibitor 0.1 mg/ml, and bovine serum albumin 2 mg/ml pH 6.5 at 25°C) using a Teflon (trademark) homogenizer, 15 strokes at 500 rpm. The homogenate was further diluted in binding assay buffer to give a final concentration of 0.5 mg original wet weight/1 ml buffer. […] All assays were run in duplicate. The reaction mixtures were incubated at 25°C for 2 hours and the reaction terminated by rapid filtration (Brandell 24 well cell harvester) over Whatman GF/C filters, washing 3 x 4 mls with ice-cold 100 Mm NaCl. The radioactivity on the filters was counted with a LKB gamma counter.
Drug displacement studies were performed with at least 10 concentrations of compounds of Formula I and the IC₅₀ values were determined by regression analysis IC₅₀ refers to the concentration of the compound required to inhibit 50% of specific binding of ¹²⁵I-CCK-8.
For `Cc1cccc(NC(=O)NC2N=C(N3CCCC3)c3ccccc3N(C)C2=O)c1` (racemic) [Example 2, N-[3(R,S)-2.3-Dihydro-1-methyl-2-oxo-5-(pyrrolidin-1-yl)-1H-1,4-benzodiazepin-3-yl] N′-[3-methylphenyl] urea], the IC50 stood at 612 nM.
The result for `Cc1cccc(NC(=O)NC2N=C(N3CCOCC3)c3ccccc3N(C)C2=O)c1` (racemic) [Example 3, N-[3(R,S)-2,3-Dihydro-1-methyl-5-(morpholin-4-yl)-2-oxo-1H-1,4-benzodiazepin-3-yl] N′-[3-methylphenyl] urea] reads 505 nM; that for `Cc1cccc(NC(=O)NC2N=C(N3CCN(C)CC3)c3ccccc3N(C)C2=O)c1` (racemic) [Example 4, N-[3(R,S)-2,3-Dihydro-1-methyl-5-(4-methylpiperazin-1-yl-2-oxo-1H-1,4-benzodiazepin-3-yl] N′-[3-methylphenyl]urea], 4120 nM; that for `CCc1cccc(NC(=O)NC2N=C(N3CCN(C)CC3)c3ccccc3N(C)C2=O)c1` (racemic) [Example 5, N-[3(R,S)-2,3-Dihydro-1-methyl-5-(4-methylpiperazin-1-yl)-2-oxo-1H-1,4-benzodiazepin-3-yl] N′-[3-ethylphenyl] urea], 4320 nM.
Consider `Cc1ccc(NC(=O)NC2N=C(N3CCN(C)CC3)c3ccccc3N(C)C2=O)cc1` (racemic) [Example 6, N-[3(R,S)-2,3-Dihydro-1-methyl-5-(4-methylpiperazin-1-yl-2-oxo-1H-1,4-benzodiazepin-3-yl] N′-[4-methylphenyl]urea], for which the IC50 was > 3000 nM.
The result for `CN1CCN(C2=NC(NC(=O)Nc3ccc(Cl)cc3)C(=O)N(C)c3ccccc32)CC1` (racemic) [Example 7, N-[3(R,S)-2,3-Dihydro-1-methyl-5-(4-methylpiperazin-1-yl-2-oxo-1H-1,4-benzodiazepin-3-yl] N′-[4-chlorophenyl]urea] reads > 3000 nM; that for `Cc1cccc(NC(=O)NC2N=C(N3CCNCC3)c3ccccc3N(C)C2=O)c1` (racemic) [Example 9, N-[3(R,S)-2,3-Dihydro-1-methyl-2-oxo-5-(piperazin-1-yl)-1H-1,4-benzodiazepin-3-yl]-N′-[3-methylphenyl] urea], > 3000 nM.
Compound `COc1cccc(NC(=O)NC2N=C(N3CCN(C)CC3)c3ccccc3N(C)C2=O)c1` (racemic) [Example 10, N-[3(R,S)-2,3-Dihydro-1-methyl-5-(4-methylpiperazin-1-yl)-2-oxo-1H-1,4-benzodiazepin-3-yl]-N#MIN#-[3-methoxyphenyl] urea] registered an IC50 of 900 nM.
The result for `CN1CCN(C2=NC(NC(=O)Nc3cccc(O)c3)C(=O)N(C)c3ccccc32)CC1` (racemic) [Example 11, N-[3(R,S)-2,3-Dihydro-1-methyl-5-(4-methylpiperazin-1-yl)-2-oxo-1H-1,4-benzodiazepin-3-yl]-N#MIN#-[3-hydroxyphenyl] urea] reads 2300 nM.
The result for `CCCN1C(=O)C(NC(=O)Nc2cccc(OC)c2)N=C(N2CCN(C)CC2)c2ccccc21` (racemic) [Example 12, N-[3(R,S)-2,3-Dihydro-5-(4-methylpiperazin-1-yl)-2-oxo-1-propyl-1H-1,4-benzodiazepin-3-yl]-N#MIN#-[3-methoxyphenyl] urea] reads > 3000 nM; that for `CN1CCN(C2=NC(NC(=O)Nc3cccc(-c4nnn(C)n4)c3)C(=O)N(C)c3ccccc32)CC1` (racemic) [Example 13, N-[3(R,S)-2,3-Dihydro-1-methyl-2-oxo-5-(4-methylpiperazin-1-yl)-1H-1,4-benzodiazepin-3-yl]-N′-[3-(2-methyltetrazol-5-yl)phenyl] urea], > 3000 nM.
On to `CN1CCN(C2=NC(NC(=O)Nc3cccc(-c4nnnn4C)c3)C(=O)N(C)c3ccccc32)CC1` (racemic) [Example 14, N-[3(R,S)-2,3-Dihydro-1-methyl-2-oxo-5-(4-methylpiperazin-1-yl)-1H-1,4-benzodiazepin-3-yl)-N′-[3-(1-methyltetrazol-5-yl)phenyl] urea], for which the IC50 was > 3000 nM.
The same measure for `CN1CCN(C2=NC(NC(=O)Nc3cccc(C(=O)N(C)C)c3)C(=O)N(C)c3ccccc32)CC1` (racemic) [Example 15, N-[3(R,S)-2,3-Dihydro-1-methyl-2-oxo-5-(4-methylpiperazin-1-yl)-1H-1,4-benzodiazepin-3-yl]-N′-[3-(N,N-dimethylcarboxamido)phenyl] urea]: > 3000 nM.
The result for `Cc1cccc(NC(=O)NC2N=C(N3CCCNCC3)c3ccccc3N(C)C2=O)c1` (racemic) [Example 16, N-[3(R,S)-2,3-Dihydro-5-(homopiperazin-1-yl)-1-methyl-2-oxo-1H-1,4-benzodiazepin-3-yl]-N′-[3-methylphenyl] urea] reads > 3000 nM; that for `Cc1cccc(NC(=O)NC2N=C(N3CCCN(C)CC3)c3ccccc3N(C)C2=O)c1` (racemic) [Example 17, N-[3(R,S)-2,3-Dihydro-1-methyl-5-(4-methylhomopiperazin-1-yl)-2-oxo-1H-1,4-benzodiazepin-3-yl]-N′-[3-methylphenyl] urea], 2800 nM; that for `CCNC(=O)c1cccc(NC(=O)NC2N=C(N3CCN(C)CC3)c3ccccc3N(C)C2=O)c1` (racemic) [Example 18, N-[3(R,S)-2,3-Dihydro-1-methyl-2-oxo-5-(4-methylpiperazin-1-yl)-1H-1,4-benzodiazepin-3-yl]-N′-[3-(N-ethylcarboxamido)phenyl] urea], > 3000 nM.
As to `CCc1cccc(NC(=O)NC2N=C(N3CCCCC3)c3ccccc3N(C)C2=O)c1` (racemic) [Example 19, N-[3(R,S)-2,3-Dihydro-1-methyl-2-oxo-5-(piperidin-1-yl)-1H-1,4-benzodiazepin-3-yl]-N′-[3-ethylphenyl] urea], the IC50 amounted to 25 nM.
The result for `Cc1cccc(NC(=O)NC2N=C(N3CCCCCC3)c3ccccc3N(C)C2=O)c1` (racemic) [Example 20, N-[3(R,S)-2,3-Dihydro-5-(homopiperidin-1-yl)-1-methyl-2-oxo-1H-1,4-benzodiazepin-3-yl]-N′-[3-methylphenyl] urea] reads 10 nM.
In turn, `CCCN1C(=O)C(NC(=O)Nc2cccc(CC)c2)N=C(N2CCN(C)CC2)c2ccccc21` (racemic) [Example 21, N-[3(R,S)-2,3-Dihydro-5-(4-methylpiperazin-1-yl)-2-oxo-1-propyl-1H-1,4-benzodiazepin-3-yl]-N#MIN#-[3-ethylphenyl] urea] gave an IC50 of 2400 nM.
The same measure for `Cc1cccc(NC(=O)NC2N=C(N3CCN(C)CC3)c3ccccc3N(CC(C)C)C2=O)c1` (racemic) [Example 22, N-[3(R,S)-2,3-Dihydro-5-(4-methylpiperazin-1-yl)-1-(2-methylpropyl)-2-oxo-1H-1,4-benzodiazepin-3-yl]-N′-[3-methylphenyl] urea]: 1800 nM.
For `CCc1cccc(NC(=O)NC2N=C(N3CCN(C)CC3)c3ccccc3N(CC(C)C)C2=O)c1` (racemic) [Example 23, N-[3(R,S)-2,3-Dihydro-5-(4-methylpiperazin-1-yl)-1-(2-methylpropyl)-2-oxo-1H-1,4-benzodiazepin-3-yl]-N′-[3-ethylphenyl] urea], the IC50 was 2400 nM.
The same measure for `CN1CCN(C2=NC(NC(=O)Nc3cccc(C(F)(F)F)c3)C(=O)N(C)c3ccccc32)CC1` (racemic) [Example 30, N-[3(R,S)-2,3-Dihydro-1-methyl-2-oxo-5-(4-methylpiperazin-1-yl)-1H-1,4-benzodiazepin-3-yl]-N′-[3-trifluoromethylphenyl] urea]: 2700 nM; for `CN1CCN(C2=NC(NC(=O)Nc3ccccc3)C(=O)N(C)c3ccccc32)CC1` (racemic) [Example 31, N-[3(R,S)-2,3-Dihydro-1-methyl-2-oxo-5-(4-methylpiperazin-1-yl)-1H-1,4-benzodiazepin-3-yl]-N′-phenyl urea]: 3450 nM; for `CCCN1C(=O)C(NC(=O)Nc2ccc3c(c2)CCC3)N=C(N2CCN(C)CC2)c2ccccc21` (racemic) [Example 33, N-[3(R,S)-2,3-Dihydro-5-(4-methylpiperazin-1-yl)-2-oxo-1-propyl-1H-1,4-benzodiazepin-3-yl]-N′-[5-indanyl] urea]: > 3000 nM.
On to `CCCN1C(=O)C(NC(=O)Nc2cccc(C)c2)N=C(N2CCNCC2)c2ccccc21` (racemic) [Example 36, N-[3(R,S)-2,3-Dihydro-2-oxo-5-(piperazin-1-yl)-1-propyl-1H-1,4-benzodiazepin-3-yl]-N′-[3-methylphenyl] urea], for which the IC50 was > 3000 nM.

The values are drawn from patent EP0539170A1, “Benzodiazepine derivatives and their use as antagonists of cholecystokinin and/or gastrin receptors” (priority 1991, dated 1993).
